# From article PMC6680510, “Benzotriazine Di-Oxide Prodrugs for Exploiting Hypoxia and Low Extracellular pH in Tumors” (Molecules, 2019)
# “And” between values parts separate entries of the source, which are not always exact repeats. Equal entries are not always repeated. Where two headings read alike, the source gives them in different places.
# Assays:
# [1] = One-electron reduction potentials by pulse radiolysis; assay type: physicochemical; conditions: pH 7.0, equilibrium with redox indicator shown in square brackets
# Experimental: One-electron reduction potentials (E^0′) were determined from the redox equilibria with methylviologen, MV^2+, (E^0′ = […], [34]), dimethyldiquat, V21^2+, (E^0′ = […], [35]), or triquat, TQ^2+, (E^0′ = −548 ± 7 mV [34]). […] Substituting the 3-alkanoic sidechain with the 3-aminoalkanoic sidechain on the BTO 1,4-dioxide lowers the E^0′, as does the addition of the cyclopentane ring. The combined effect is seen for 10a, where the E^0′ value is −565 mV, which is expected to be too low for significant bioreduction under hypoxia.
# Time-resolved optical absorption and kinetic studies were carried out using the University of Auckland’s 4 MeV linear accelerator, which has been previously described. The one-electron reduction potentials of the compounds (A) and couple E^0′(A/A^−), versus normal hydrogen electrode, were determined at pH 7.0 (2.5 mM phosphate) by establishing redox equilibria within 50 μs between three mixtures of one-electron reduced A and the viologen reference compounds, MV^2+, TQ^2+ and V21^2+. The determined equilibrium constants were used to calculate the ΔE values using the Nernst equation, correcting for ionic strength effects, as described in the literature.
# SiHa cells [2] = test: IC50 assay (inhibition of proliferation, 4 h exposure, SRB)
# Experimental: Cells were seeded in 96-well plates (SiHa or FaDu 1500 cells/well, UT-SCC-74B 800 cells/well) in 100 μL. After incubation for 2 h, the drugs were added in 50 μL of the same titrated medium at 3× the final concentration to duplicate the wells. After a further 4 h the plates were checked for drug precipitation using a phase contrast microscope, then drugs were removed by aspirating and washing with the standard (pH 7.4) medium, then aspirating again and adding 150 μL of the medium. Cultures were then grown for 5 days before staining with sulphorhodamine B and measuring absorbance, with the estimation of IC50 values using 4-parameter logistic regression, as previously carried out.
# The medium and plasticware was equilibrated in the chamber for 3 days prior to use. In the anoxia experiments, FaDu cells were plated in poly-L-lysine coated plates (Corning Cat # 356461) to improve attachment.
# Cells were subsequently grown under standard cell culture conditions (oxia, pHe 7.4) for 5 days before staining with sulforhodamine B (SRB). […] (B) SN30000 (2). (C) BTO acid 4a. Values are means and errors are ranges for duplicate cultures in a single experiment. Fitted curves are 4-parameter logistic regressions. PCR = pH cytotoxicity ratio. ACR = anoxia cytotoxicity ratio. TMR = tumor microenvironment ratio.
# FaDu cells = test: as above; assay type: cell-based
# SiHa cells [3] = system: SiHa cells
# Experimental: In these experiments, cell pellets were collected by centrifugation and ^3H-mannitol was used as a cell-excluded marker to enable correction for the entrapped extracellular medium.
# Log-phase cultures were dissociated with trypsin/EDTA, followed by the addition of the medium with DNAase I (Sigma DN-25) at 100 μg/mL for 5 min at 37 °C to minimize clumping. The cell pellets were collected by centrifugation and resuspended in αMEM with 5% FBS at pH 7.4 or 6.5 to 2 × 10^6 cells/mL. Samples (12 mL) were equilibrated with magnetic stirring at 37 °C under flowing humidified 5% CO2/air or N2 (50–100 mL/min), as previously described [86]. After equilibration for 60 min, the compounds were added in 50 μL of DMSO. The samples (5 mL) were withdrawn 5 and 60 min later, where the cell pellets were then collected by centrifugation and 4 mL of the supernatant was discarded. The pellets were resuspended in the remaining 1 mL, transferred to microcentrifuge tubes containing 7 μL ^3H-mannitol (740 GBq/mmol, American Radiolabeled Chemicals Inc., St. Louis, MO) as an extracellular marker, and then centrifuged (11,000g × 30s). The supernatant was removed and frozen at −80 °C (extracellular samples) and the tubes were centrifuged again, and any remaining medium was carefully removed. Ice-cold MeOH (80 μL) was added to the pellets which were disrupted by pipetting and stored at −80 °C (intracellular samples). When these were thawed for HPLC analysis (Section 4.12), the volume of extracellular water trapped in the pellets was determined by the scintillation counting (PerkinElmer Tri-Carb B2910TR Liquid Scintillation) of 25 μL of each extracellular and intracellular sample in 3 mL of Emulsifier-Safe™ scintillation cocktail (PerkinElmer). The extracellular volume in each intracellular sample was used to correct the intracellular drug concentration as previously described [87].
# The samples were analyzed using an Agilent 1200 HPLC with a diode array absorbance detector and autosampler maintained at 4 °C (Agilent Technologies). The frozen samples were thawed, then centrifuged (11,000g × 5 min), and then extracellular samples were injected directly (typically 20 μL), while for the intracellular samples 30 μL was mixed 1:1 with αMEM and 50 μL was injected. […] All calibration curves were linear (R^2 > 0.999). The column was an Agilent ZORBAX Eclipse (XDB-C18, 5u, 2.1 × 150 mm, Agilent Technologies) with a flow rate of 0.4 mL/min. For SN30000 (2), the mobile phase was a mixture of 80% MeCN/water v/v (A), and a 45 mM formate buffer at a pH 4.5, eluting with a linear gradient of 5–100% A over 18 min. The same method was used for the BTO acids, except for 4a, where the aqueous mobile phase pH was reduced to 3.5.
# Values are mean and SEM for 3 replicates. ND: Not detected.
# [4] = Solubility in AlphaMEM + 5% FBS, pH 7.4; conditions: culture medium (AlphaMEM + 5% FBS), pH 7.4, plasma or biological fluid
# [5] = system: reduction of BTOs to their N-1-oxides by SiHa cells; test: WST-1 inhibition of anoxic reduction of BTOs to N-1-oxides; assay type: cell-based
# Text: One possibility for this is that the BTO acids are reduced to the 1-oxides by an extracellular one-electron reductase. To test this, we evaluated whether the cell-excluded disulfonic acid tetrazolium salt WST-1 could compete with BTO acids for one-electron reduction. WST-1 is a known electron acceptor for one-electron reduction by the plasma membrane electron transport system (PMET) and is widely used as a cell viability assay, although the latter application uses 1-methoxyphenazine methylsulphate (mPMS) as an electron transfer intermediate. Given the possibility that mPMS could cross the plasma membrane itself, we used WST-1 without mPMS to ensure that the electron donor is a cell surface reductase.
# The log-phase cells were trypsinized and the pellets were transferred to the anaerobic chamber and resuspended in equilibrated αMEM + 5% FBS at pH 7.4 and plated (10^5 cells in 100 μL/well for experiments with WST1, otherwise 2 × 10^5 cells/well). After incubation at 37 °C for 2 h, 20 μL was replaced with the anoxic medium containing 5× the final concentrations of test compounds with or without WST-1 (1 mM, Toronto Research Chemicals). A cell-free medium used as a control to check for reduction in the anoxic medium. Cultures were mixed gently, incubated for a further 2 h, then the extracellular medium was removed and 200 μL of ice-cold MeOH was added to the monolayers. The MeOH extract was transferred to the medium sample (thus combining the intracellular and extracellular samples). The pooled samples (combining the intracellular and extracellular samples) were removed from anoxic chamber, then centrifuged (13000g, 30 s) and frozen for subsequent HPLC analysis. Cell-free wells were used for single-point calibration of the parent compounds and 1-oxides in each experiment.
# Figure 8 Inhibition of reduction of BTOs to their N-1-oxides by the cell-excluded electron acceptor WST-1. SiHa cells were seeded in 96-well plates at 10^6 cells/mL and exposed to the compounds (50 μM) with the indicated concentrations of WST-1 under anoxia for 2 h. Total (pooled intracellular and extracellular) amounts of the 1-oxide metabolites were determined by HPLC. Values are mean and SEM for two experiments with triplicate cultures at each concentration.
# [6] = read-out: Anoxic IC50, SiHa, pHe 6.5, 4 h, anoxic
# [7] = read-out: Anoxic IC50, SiHa, pHe 7.4, 4 h, anoxic
# [8] = read-out: Oxic IC50, SiHa, pHe 6.5, 4 h, oxic
# [9] = read-out: Oxic IC50, SiHa, pHe 7.4, 4 h, oxic
# [10] = pHe 6.5, 4 h, anoxic, read-out: Anoxic IC50
# [11] = pHe 6.5, 4 h, oxic, read-out: Oxic IC50
# [12] = pHe 7.4, 4 h, anoxic, read-out: Anoxic IC50
# [13] = pHe 7.4, 4 h, oxic, read-out: Oxic IC50
# [14] = Homo sapiens, SiHa, 4 h, read-out: Anoxic IC50, SiHa, pHe 6.5, 4 h, anoxic
# [15] = Homo sapiens, SiHa, 4 h, read-out: Anoxic IC50, SiHa, pHe 7.4, 4 h, anoxic
# [16] = Homo sapiens, SiHa, 4 h, read-out: Oxic IC50, SiHa, pHe 6.5, 4 h, oxic
# [17] = Homo sapiens, SiHa, 4 h, read-out: Oxic IC50, SiHa, pHe 7.4, 4 h, oxic
# [18] = Homo sapiens, 4 h, pHe 6.5, 4 h, anoxic, read-out: Anoxic IC50
# [19] = Homo sapiens, 4 h, pHe 6.5, 4 h, oxic, read-out: Oxic IC50
# [20] = Homo sapiens, 4 h, pHe 7.4, 4 h, anoxic, read-out: Anoxic IC50
# [21] = Homo sapiens, 4 h, pHe 7.4, 4 h, oxic, read-out: Oxic IC50
Compound,E^0′ one-electron reduction potential [1],melting point,solubility ([4]; thermodynamic from solid) [µM],TMR (overall TME ratio = oxic IC50 pHe 7.4/anoxic IC50 pHe 6.5) (SiHa cells [2]; SiHa),"PCR Anoxic (IC50 at pHe 7.4/IC50 at pHe 6.5) (SiHa cells [2]; SiHa, anoxic)","PCR oxic (IC50 at pHe 7.4/IC50 at pHe 6.5) (SiHa cells [2]; SiHa, oxic)",TMR (oxic IC50 pHe 7.4/anoxic IC50 pHe 6.5) (FaDu cells),PCR Anoxic (IC50 at pHe 7.4/IC50 at pHe 6.5) (FaDu cells; anoxic),ACR (oxic IC50/anoxic IC50) (FaDu cells; pHe 6.5),IC50 (SiHa cells [2]; [14]) [µM],IC50 (SiHa cells [2]; [15]) [µM],IC50 (SiHa cells [2]; [16]) [µM],IC50 (SiHa cells [2]; [17]) [µM],"ACR (anoxic cytotoxicity ratio = oxic IC50/anoxic IC50) (SiHa cells [2]; SiHa, pHe 6.5)",IC50 (FaDu cells; [18]) [µM],IC50 (FaDu cells; [19]) [µM],IC50 (FaDu cells; [20]) [µM],IC50 (FaDu cells; [21]) [µM],"ACR (anoxic cytotoxicity ratio = oxic IC50/anoxic IC50) (SiHa cells [2]; SiHa, pHe 7.4)",ACR (oxic IC50/anoxic IC50) (FaDu cells; pHe 7.4),other results
"3-((2-Carboxyethyl)amino)-7,8-dihydro-6H-indeno[5,6-e][1,2,4]triazine 1,4-Dioxide [Compound 11a]",−481 ± 10 [MV^2+] mV,,,15.9 ± 1.6,4.94 ± 1.14,4.18 ± 0.21,>1,>1,> 1,,,,,,,,,,,,"IC50 (SiHa cells [2]; [6]): 145 ± 13 µM; IC50 (SiHa cells [2]; [7]): 714 ± 152 µM; IC50 (SiHa cells [2]; [8]): 551 ± 16 µM; IC50 (SiHa cells [2]; [9]): 2300 ± 92 µM; IC50 (FaDu cells; [10]): 3810 ± 390 µM; IC50 (FaDu cells; [11]): > 4000 µM; IC50 (FaDu cells; [12]): > 4000 µM; IC50 (FaDu cells; [13]): > 4000 µM; Ci ratio (Ci at pHe 6.5/Ci at pHe 7.4) (SiHa cells [3]): 4.4 ± 1.2 fold; Ci/Ce, pHe 6.5 Obs 5 min (SiHa cells [3]): 0.17 ± 0.02; Ci/Ce, pHe 6.5 Obs 60 min (SiHa cells [3]): 0.29 ± 0.02; Ci/Ce, pHe 7.4 Obs 5 min (SiHa cells [3]): <0.1; Ci/Ce, pHe 7.4 Obs 60 min (SiHa cells [3]): <0.1"
"COC(=O)CCc1n[n+]([O-])c2cc3c(cc2[n+]1[O-])CCC3 [Compound 7b, 3-(3-Methoxy-3-oxopropyl)-7,8-dihydro-6H-indeno[5,6-e][1,2,4]triazine 1,4-Dioxide]",,170 to 171 °C,280,>13,0.48 ± 0.15,>1,>10,0.58 ± 0.19,7.84 ± 2.56,15.1 ± 3.1,7.3 ± 1.6,195 ± 22,> 200,13.0 ± 3.0,20 ± 5.4,157 ± 28,11.5 ± 2.2,> 200,>27,>17,PCR oxic (IC50 at pHe 7.4/IC50 at pHe 6.5) (FaDu cells; oxic): >1.2
"O=C(O)CNc1n[n+]([O-])c2ccccc2[n+]1[O-] [Compound 8a, 3-((Carboxymethyl)amino)benzo[e][1,2,4]triazine 1,4-dioxide]",−470 ± 9 [MV^2+] mV,,8700,>15,1.14 ± 0.25,,>6.9,1.0 ± 0.19,4.99 ± 1.24,135 ± 18,154 ± 26,> 2000,> 2000,>15,290 ± 48,1450 ± 268,289 ± 25,> 2000,>13,>6.9,PCR oxic (IC50 at pHe 7.4/IC50 at pHe 6.5) (FaDu cells; oxic): >1
O=[N+]([O-])c1ccc(-[n+]2nc(-c3ccc(S(=O)(=O)O)cc3S(=O)(=O)[O-])nn2-c2ccc(I)cc2)cc1 [WST-1],,,,,,,,,,,,,,,,,,,,,"IC50 ([5]; read-out: IC50 for inhibition of anoxic reduction of 4a to N-1-oxide 15a, substrate 4a 50 μM, anoxia 2 h): 7.05 µM; IC50 ([5]; read-out: IC50 for inhibition of anoxic reduction of 7a to N-1-oxide 15d, substrate 7a 50 μM, anoxia 2 h): 14.3 µM; IC50 ([5]; substrate SN30000 50 μM, anoxia 2 h, read-out: IC50 for inhibition of metabolic reduction of SN30000): > 1000 µM; IC50 ([5]; substrate TPZ 50 μM, anoxia 2 h, read-out: IC50 for inhibition of metabolic reduction of TPZ): > 1000 µM"

# Further lines, with some results ahead:
E^0′ one-electron reduction potential [1],melting point,solubility ([4]; thermodynamic from solid) [µM],Compound,TMR (overall TME ratio = oxic IC50 pHe 7.4/anoxic IC50 pHe 6.5) (SiHa cells [2]; SiHa),"PCR Anoxic (IC50 at pHe 7.4/IC50 at pHe 6.5) (SiHa cells [2]; SiHa, anoxic)","PCR oxic (IC50 at pHe 7.4/IC50 at pHe 6.5) (SiHa cells [2]; SiHa, oxic)",TMR (oxic IC50 pHe 7.4/anoxic IC50 pHe 6.5) (FaDu cells),PCR Anoxic (IC50 at pHe 7.4/IC50 at pHe 6.5) (FaDu cells; anoxic),ACR (oxic IC50/anoxic IC50) (FaDu cells; pHe 6.5),IC50 (SiHa cells [2]; [14]) [µM],IC50 (SiHa cells [2]; [15]) [µM],IC50 (SiHa cells [2]; [16]) [µM],IC50 (SiHa cells [2]; [17]) [µM],"ACR (anoxic cytotoxicity ratio = oxic IC50/anoxic IC50) (SiHa cells [2]; SiHa, pHe 6.5)",IC50 (FaDu cells; [18]) [µM],IC50 (FaDu cells; [19]) [µM],IC50 (FaDu cells; [20]) [µM],IC50 (FaDu cells; [21]) [µM],"ACR (anoxic cytotoxicity ratio = oxic IC50/anoxic IC50) (SiHa cells [2]; SiHa, pHe 7.4)",ACR (oxic IC50/anoxic IC50) (FaDu cells; pHe 7.4),other results
,173 to 175 °C (dec.),,"Cc1ccc2c(c1)[n+]([O-])c(CCC(=O)O)n[n+]2[O-] [Compound 6a, 3-(2-Carboxyethyl)-6-methylbenzo[e][1,2,4]triazine 1,4-Dioxide]",>2.7,3.24 ± 0.67,,>5,>5,>5,364 ± 47,1180 ± 190,> 1000,> 1000,>2.7,205 ± 25,> 1000,> 1000,> 1000,,,solubility ([4]; kinetic from dmso stock): > 960 µM
,171 to 178 °C,70,"COC(=O)CNc1n[n+]([O-])c2cc3c(cc2[n+]1[O-])CCC3 [Compound 9b, 3-((2-Methoxy-2-oxoethyl)amino)-7,8-dihydro-6H-indeno[5,6-e][1,2,4]triazine 1,4-dioxide]",>4.6,0.74 ± 0.23,>1.2,>1.4,1.24 ± 0.28,>1,10.9 ± 1.42,8.08 ± 2.23,42.2 ± 5.7,> 53,3.87 ±0.73,37.7 ± 8,> 53,46.9 ± 3,> 53,>6.5,>1,
−565 mV and −565 ± 8 [TQ^2+] mV,,,"O=C(O)CCCNc1n[n+]([O-])c2ccccc2[n+]1[O-] [Compound 10a, 3-((3-Carboxypropyl)amino)benzo[e][1,2,4]triazine 1,4-Dioxide]",>4.8,>4.8,,>4,1.58 ± 0.37,>4,,,,,,,,,,,>3,ACR (anoxic cytotoxicity ratio = oxic IC50/anoxic IC50) (SiHa cells [2]): >4.8; IC50 (SiHa cells [2]; [6]): 416 ± 57 µM; IC50 (SiHa cells [2]; [7]): > 2000 µM; IC50 (SiHa cells [2]; [8]): > 2000 µM; IC50 (SiHa cells [2]; [9]): > 2000 µM; IC50 (FaDu cells; [10]): 543 ± 126 µM; IC50 (FaDu cells; [11]): > 2000 µM; IC50 (FaDu cells; [12]): 856 ± 22 µM; IC50 (FaDu cells; [13]): > 2000 µM
